Test results published in patent publication US7253149B2, “Compounds and methods for modulating cell-adhesion mediated drug resistance” (University of South Florida, priority 2000, dated 2007).
Where two headings read alike, the source gives them in different places. Marks after values point to notes of the source that are not given here. Values belong to the molecule of their own block, whether it stands above or below them. Where no end group is shown, it is not given here. [ ]: non-standard residue; d: D form.

How the values were obtained:
K562 cells [1] = assay: MTT cytotoxicity assay, FN adhered vs suspension K562 cells; format: cell-based
Experimental: Plastic 96-well Immunosorp plates (Nunc, Denmark) are coated with 50 μl (40 μg/ml) FN (Life Technologies) or BSA overnight. Cells are washed once and resuspended in serum-free RPMI 1640, then 2×10^4 (K562) cells are added to each FN coated well. 8×10^3 (K562) cells are added to BSA coated wells. Cells are incubated for 2 hours at 37° C., washed with serum free media, and put back into serum-containing media. Following 24 hours in a tissue culture incubator, drug or vehicle control is added to each well for 90 minutes, media is removed and replaced by drug-free media for 96 hours. In some experiments, the drug is allowed to remain in each well for 96 hours. 50 μl 3-[4,5-Dimethylthiazol-2-yl]-2,5-diphenyltetrazolium bromide;Thiazolyl blue (MTT dye) (Sigma) is added to each well for 4 hours, plates are centrifuged and each well aspirated. Dye is solubilized with 100 μl DMSO and plates are read at 540 nm on an automated microtiter plate reader. A blank well containing only medium and drug is also run as a control in all experiments. IC50 values are calculated by linear regression analysis of percent survival vs. drug concentration.
The MTT assay is used to detect differences in the drug sensitivity of FN adhered vs. suspension-cultured cells following a 90 minutes or 96 hours (continuous) exposure to either mitoxantrone or melphalan (L-phenylalanine mustard or LPAM). After a 96 hour period in a cell incubator, cell survival is determined by the ability of viable cells to reduce MTT dye to formazan. IC50 values are derived through linear regression of the log-linear dose-response plots for each cell line to each drug. Student's T-test is used to analyze differences in drug response using data collected from at least three different experiments. FIGS. 8A and 8B depict representative continuous exposure experiments using mitoxantrone and LPAM, respectively.

K562 cells [2] = assay: Adhesion of K562 cells to FN in presence of AG957; format: cell-based; conditions: concentrations of inhibitor used in cytotoxicity assays
Experimental: Cellular adhesion to FN is determined.
The BCR/ABL kinase is believed to be critical to the survival of CML cells through its effects on a number of signal transduction pathways. Inhibitors of this fusion protein show promise as apoptosis-inducing drugs in CML cells. BCR/ABL inhibition by relatively high doses of the tyrphostin AG957 can have negative effects on FN adhesion. At the concentrations of inhibitor used in cytotoxicity assays, the adhesion of K562 cells to FN is not affected by more than 20–40 percent.

[3] = tested on: BCR/ABL-associated tyrosine kinase activity; assay: Anti-phosphotyrosine immunoblotting of AG957 treated K562 cells; conditions: 20 μM AG957, four hours
K562 cells [4] = format: cell-based
8226/S myeloma cells [5] = assay: Annexin V apoptotic analysis, FN-adhered vs non-adhered 8226/S cells; format: cell-based, human; conditions: 50 uM melphalan, 24 hours
8226/S myeloma cells [6] = assay: MTT cytotoxicity assay, FN-adhered vs non-adhered 8226/S cells; format: cell-based, human; conditions: for IC50: Homo sapiens
[7] = tested on: K562/pcDNA3.1 and K562/VLA-4 cells; assay: Annexin V apoptosis analysis of α4 and empty vector transfectants adhered to FN with blocking antibodies; format: cell-based; conditions: for level of cytoprotection in comparison to drug treated suspension cells: 100 μM LPAM 90 minutes, 24 hours; for protection against melphalan-induced apoptosis: α5 blocking antibody prior to adhesion
8226/S = format: cell-based, human
fibronectin = assay: cell-based or functional assay
U937 cells = assay: Microtiter adhesion assay, adhesion of U937 cells to fibronectin; format: cell-based; conditions: 5 μg/ml to 80 μg/ml, FIG. 26
[8] = molecular target: integrin β7 subunit (human) (UniProt P26010); assay: flow cytometry (FACS) on 8226/LR5 cells, FITC-conjugated secondary antibody
Sequence of UniProt P26010 (P26010 20-798): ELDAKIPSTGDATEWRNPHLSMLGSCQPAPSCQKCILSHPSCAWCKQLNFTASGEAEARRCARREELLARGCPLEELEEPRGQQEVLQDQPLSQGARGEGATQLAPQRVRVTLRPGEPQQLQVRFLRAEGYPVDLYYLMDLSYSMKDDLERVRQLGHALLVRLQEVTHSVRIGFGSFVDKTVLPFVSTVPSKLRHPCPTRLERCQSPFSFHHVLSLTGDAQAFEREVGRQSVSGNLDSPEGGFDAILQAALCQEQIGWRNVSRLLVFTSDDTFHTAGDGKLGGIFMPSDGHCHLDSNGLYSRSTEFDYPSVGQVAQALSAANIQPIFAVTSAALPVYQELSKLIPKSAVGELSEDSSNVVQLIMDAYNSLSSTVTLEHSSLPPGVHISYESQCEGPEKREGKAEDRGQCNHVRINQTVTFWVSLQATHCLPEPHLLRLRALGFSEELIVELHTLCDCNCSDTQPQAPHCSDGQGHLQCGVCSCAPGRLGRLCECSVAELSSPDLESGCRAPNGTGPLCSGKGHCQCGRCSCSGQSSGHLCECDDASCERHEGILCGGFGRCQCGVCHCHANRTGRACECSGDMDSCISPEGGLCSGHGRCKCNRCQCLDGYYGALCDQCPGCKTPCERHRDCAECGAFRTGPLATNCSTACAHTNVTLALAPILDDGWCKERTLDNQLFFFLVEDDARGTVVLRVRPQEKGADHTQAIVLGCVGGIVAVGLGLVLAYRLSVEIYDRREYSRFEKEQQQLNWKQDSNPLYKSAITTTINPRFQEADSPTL

[9] = molecular target: integrin β7 subunit (human) (UniProt P26010); assay: flow cytometry (FACS) on 8226/DOX6 cells, FITC-conjugated secondary antibody
[10] = molecular target: integrin β7 subunit (human) (UniProt P26010); assay: flow cytometry (FACS) on 8226/S cells, FITC-conjugated secondary antibody
[11] = molecular target: integrin α5 subunit (CDw49e) (human) (UniProt P08648); assay: flow cytometry (FACS) on 8226/LR5 cells, FITC-conjugated secondary antibody
[12] = molecular target: integrin α5 subunit (CDw49e) (human) (UniProt P08648); assay: flow cytometry (FACS) on 8226/DOX6 cells, FITC-conjugated secondary antibody
[13] = molecular target: VLA-5 (α5β1 integrin) (human) (UniProt P08648); assay: cell-based or functional assay
[14] = molecular target: integrin α5 subunit (CDw49e) (human) (UniProt P08648); assay: flow cytometry (FACS) on 8226/S cells, FITC-conjugated secondary antibody
[15] = molecular target: integrin α4 subunit (CDw49d) (human) (UniProt P13612); assay: flow cytometry (FACS) on 8226/LR5 cells, FITC-conjugated secondary antibody
[16] = molecular target: integrin α4 subunit (CDw49d) (human) (UniProt P13612); assay: flow cytometry (FACS) on 8226/DOX6 cells, FITC-conjugated secondary antibody
[17] = molecular target: integrin α4 subunit (CDw49d) (human) (UniProt P13612); assay: flow cytometry (FACS) on 8226/S cells, FITC-conjugated secondary antibody

Molecule: COC(=O)c1ccc(NCc2cc(O)ccc2O)cc1 [AG957]
fold resistance of FN adhered cells over suspension cells (K562 cells [1]; AG957 for 96 hours): 3.6 | IC50 (K562 cells [1]; AG957 for 96 hours, three independent experiments, read-out: mean IC50 FN adhered cells): 12.9 µM | IC50 (K562 cells [1]; AG957 for 96 hours, three independent experiments, read-out: mean IC50 suspension grown cells): 3.6 µM | effect on adhesion of K562 cells to FN (K562 cells [2]): 20–40% | BCR/ABL associated tyrosine phosphorylation [3]: completely abrogated

Molecule: Nc1ccn([C@@H]2O[C@H](CO)[C@@H](O)[C@@H]2O)c(=O)n1 [Ara-C]
% Control death (K562 cells [4]): 54.9* % | FN: mean death (K562 cells [4]): 6.2 ± 1.6 | Suspension: mean death (K562 cells [4]): 11.3 ± 5.5

Molecule: N[C@@H](Cc1ccc(N(CCCl)CCCl)cc1)C(=O)O [LPAM, L-phenylalanine nitrogen mustard]
percentage of apoptotic cells, FN-adhered (8226/S myeloma cells [5]): 16.53% | percentage of apoptotic cells, non-adhered (8226/S myeloma cells [5]): 21.5% | IC50 (8226/S myeloma cells [6]; read-out: mean IC50 value for FN-adhered cells): 48 µM | IC50 (8226/S myeloma cells [6]; read-out: mean IC50 value for cells grown on BSA): 30 µM | mean difference FN-adhered vs BSA (8226/S myeloma cells [6]; n=3): 1.7 | IC50 (K562 cells [1]; Homo sapiens, K562, 1.5 h, 90 min. exposure, FN adhered, read-out: Fibronectin mean IC50): 190 µM | IC50 (K562 cells [1]; Homo sapiens, K562, 1.5 h, 90 min. exposure, read-out: Suspension mean IC50): 29.3 µM | IC50 (K562 cells [1]; Homo sapiens, K562, 1.5 h, 90 minutes exposure, text b188, read-out: mean IC50 suspension (printed without exponent and unit)): 29.3 µM | IC50 (K562 cells [1]; Homo sapiens, K562, continuous (96 hours) exposure, FN adhered, read-out: Fibronectin mean IC50): 57.3 µM | IC50 (K562 cells [1]; Homo sapiens, K562, continuous (96 hours) exposure, read-out: Suspension mean IC50): 25.5 µM | Fold resistance FN adhered vs suspension (K562 cells [1]; continuous exposure): 2.25 fold | level of cytoprotection in comparison to drug treated suspension cells ([7]; K562/VLA-4 adhering through both α4 and α5): 30.0±1.5% | level of cytoprotection in comparison to drug treated suspension cells ([7]; K562/pcDNA3.1 adhered through α5 alone): 29.9±5.3% | protection against melphalan-induced apoptosis ([7]; K562/VLA-4): 20.6±1.9% | protection against melphalan-induced apoptosis ([7]; K562/pcDNA3.1): 0±11.1% | effect of acute exposure on cell surface integrin expression (8226/S): no immediate effects | FN: mean death (K562 cells [4]; 100 μM, 1 hr): 11.0 ± 8.3 | Suspension: mean death (K562 cells [4]; 100 μM, 1 hr): 37.5 ± 24.0 | % Control death (K562 cells [4]; 100 μM, 1 hr, FN vs suspension): 29.3* % | FN: mean death (K562 cells [4]; 100 μM, cont. exp.): 23.3 ± 6.4 | Suspension: mean death (K562 cells [4]; 100 μM, cont. exp.): 39.8 ± 3.2 | % Control death (K562 cells [4]; 100 μM, cont. exp., FN vs suspension): 58.5* %

Molecule: CC[C@]1(O)C[C@H]2CN(CCc3c([nH]c4ccccc34)[C@@](C(=O)OC)(c3cc4c(cc3OC)N(C=O)[C@H]3[C@@](O)(C(=O)OC)[C@H](OC(C)=O)[C@]5(CC)C=CCN6CC[C@]43[C@@H]65)C2)C1 [VCR, vincristine]
FN-mediated protection against the drug (K562 cells [4]; continuous exposure): not significant

Molecule: COc1cccc2c1C(=O)c1c(O)c3c(c(O)c1C2=O)C[C@@](O)(C(=O)CO)C[C@@H]3O[C@H]1C[C@H](N)[C@H](O)[C@H](C)O1 [doxorubicin, Doxorubicin]
effect of acute exposure on cell surface integrin expression (8226/S; wide range of concentrations, 1–48 hours): no immediate effects

Molecule: O=C1c2c(O)ccc(O)c2C(=O)c2c(NCCNCCO)ccc(NCCNCCO)c21 [mitoxantrone]
Fold resistance FN adhered vs suspension (K562 cells [1]; 90 min. exposure): approximately 3.7 fold | Fold resistance FN adhered vs suspension (K562 cells [1]; continuous exposure): 6.8 fold

level of cytoprotection against melphalan-induced apoptosis in comparison to drug treated suspension cells (Annexin V, flow cytometry) (fibronectin): 20.6 percent
Molecule: VLA-4 (α4β1 integrin, Very Late Activation Antigen 4) (from UniProt P13612 34-1032; P05556 21-798)

level of cytoprotection against melphalan-induced apoptosis in comparison to drug treated suspension cells (Annexin V, flow cytometry) (fibronectin): 29.9 percent
Molecule: VLA-5 (α5β1 integrin) (from UniProt P08648 42-1049; P05556 21-798) (receptor)

Molecule: kmviywkag ([dK][dM][dV][dI][dY][dW][dK][dA]G) [RZ-3, D-amino acid peptide Lys-Met-Val-Ile-Tyr-Trp-Lys-Ala-Gly, each amino acid a D-amino acid]
effect on adhesion of U937 cells to FN (U937 cells): effective in preventing FN adhesion

mean fluorescence intensity [8]: 40.2 | mean fluorescence intensity [9]: 18.5 | mean fluorescence intensity [10]: 5.72
Molecule: monoclonal antibody FIB504 (anti-β7)

mean fluorescence intensity [11]: 11.9 | mean fluorescence intensity [12]: 7.32 | level of cytoprotection against melphalan-induced apoptosis in comparison to drug treated suspension cells (Annexin V, flow cytometry) [13]: 0 percent | mean fluorescence intensity [14]: 14.2
Molecule: monoclonal antibody P1D6 (anti-CDw49e, α5)

mean fluorescence intensity [15]: 46.5 | mean fluorescence intensity [16]: 69 | mean fluorescence intensity [17]: 10.4
Molecule: monoclonal antibody P4G9 (anti-CDw49d, α4)
